According to the NIST ThermoML archive (doi:10.1021/je4009238):

Columns and labels:
[1] = xn = mol fraction of the nth substance listed; conditions: 101 kPa, Liquid
[2] = refractive index (Na D-line) (dimensionless); xn = mol fraction of the nth substance listed; conditions: 101 kPa, Liquid

CCn1cc[n+](C)c1.[Cl-] [1-ethyl-3-methylimidazolium chloride] + CN(C)C=O
Conditions	mass density, [1] [kg/m3]	refractive index, [2]	viscosity, [1] [mPa·s]
288.15 K, x1 = 0.0102	958.86	1.43565	1.023
288.15 K, x1 = 0.0203	963.47	1.43836	1.156
288.15 K, x1 = 0.031	968.07	1.44091	1.188
288.15 K, x1 = 0.0417	972.24	1.44354	1.327
288.15 K, x1 = 0.0524	976.38	1.44588	1.399
288.15 K, x1 = 0.0635	980.82	1.44822	1.535
288.15 K, x1 = 0.0752	984.98	1.45067	1.765
288.15 K, x1 = 0.0867	989.33	1.45308	1.867
288.15 K, x1 = 0.0988	993.32	1.45542	2.123
288.15 K, x1 = 0.1107	997.33	1.45784	2.25
288.15 K, x1 = 0.1232	1001.39	1.46021	2.429
288.15 K, x1 = 0.1361	1005.6	1.46253	2.766
288.15 K, x1 = 0.1489	1009.6	1.46477	3.002
288.15 K, x1 = 0.1626	1013.74	1.46721	3.293
288.15 K, x1 = 0.1759	1017.7	1.46942	3.645
298.15 K, x1 = 0.0102	949.52	1.43106	0.8935
298.15 K, x1 = 0.0203	954.18	1.43346	1.007
298.15 K, x1 = 0.031	958.86	1.4364	1.03
298.15 K, x1 = 0.0417	963.18	1.43872	1.147
298.15 K, x1 = 0.0524	967.27	1.44144	1.198
298.15 K, x1 = 0.0635	971.86	1.44361	1.312
298.15 K, x1 = 0.0752	976.05	1.44626	1.501
298.15 K, x1 = 0.0867	980.59	1.44855	1.577
298.15 K, x1 = 0.0988	984.64	1.4511	1.784
298.15 K, x1 = 0.1107	988.67	1.45354	1.879
298.15 K, x1 = 0.1232	992.88	1.45597	2.014
298.15 K, x1 = 0.1361	997.07	1.45827	2.278
298.15 K, x1 = 0.1489	1001.24	1.46065	2.453
298.15 K, x1 = 0.1626	1005.4	1.46302	2.672
298.15 K, x1 = 0.1759	1009.49	1.46536	2.922
308.15 K, x1 = 0.0102	940.08	1.42654	0.7902
308.15 K, x1 = 0.0203	944.84	1.42888	0.8895
308.15 K, x1 = 0.031	949.62	1.43189	0.9058
308.15 K, x1 = 0.0417	954.02	1.43416	1.004
308.15 K, x1 = 0.0524	958.21	1.43691	1.045
308.15 K, x1 = 0.0635	962.87	1.43896	1.139
308.15 K, x1 = 0.0752	967.15	1.4419	1.297
308.15 K, x1 = 0.0867	971.78	1.44372	1.355
308.15 K, x1 = 0.0988	975.93	1.44678	1.527
308.15 K, x1 = 0.1107	980.02	1.44907	1.625
308.15 K, x1 = 0.1232	984.31	1.45167	1.705
308.15 K, x1 = 0.1361	988.59	1.45406	1.916
308.15 K, x1 = 0.1489	992.84	1.45621	2.051
308.15 K, x1 = 0.1626	997.09	1.45888	2.251
308.15 K, x1 = 0.1759	1001.24	1.46102	2.406
318.15 K, x1 = 0.0102	930.6	1.42218	0.7059
318.15 K, x1 = 0.0203	935.4	1.4245	0.794
318.15 K, x1 = 0.031	940.37	1.4275	0.8045
318.15 K, x1 = 0.0417	944.85	1.42977	0.8901
318.15 K, x1 = 0.0524	949.12	1.43252	0.923
318.15 K, x1 = 0.0635	953.87	1.43477	1.002
318.15 K, x1 = 0.0752	958.24	1.43765	1.136
318.15 K, x1 = 0.0867	962.96	1.43964	1.181
318.15 K, x1 = 0.0988	967.2	1.44253	1.327
318.15 K, x1 = 0.1107	971.44	1.445	1.404
318.15 K, x1 = 0.1232	975.73	1.44746	1.468
318.15 K, x1 = 0.1361	980.13	1.44986	1.64
318.15 K, x1 = 0.1489	984.44	1.45192	1.748
318.15 K, x1 = 0.1626	988.83	1.45477	1.905
318.15 K, x1 = 0.1759	993.01	1.45679	2.02

CCCCn1cc[n+](C)c1.[Cl-] [1-butyl-3-methylimidazolium chloride] + CN(C)C=O
Conditions	mass density, [1] [kg/m3]	refractive index, [2]	viscosity, [1] [mPa·s]
288.15 K, x1 = 0.0086	957.7	1.43562	1.064
288.15 K, x1 = 0.0172	961.03	1.43757	1.13
288.15 K, x1 = 0.026	964.09	1.4401	1.234
288.15 K, x1 = 0.0351	967.36	1.44223	1.358
288.15 K, x1 = 0.0443	970.51	1.44442	1.441
288.15 K, x1 = 0.0541	973.65	1.4466	1.571
288.15 K, x1 = 0.0638	976.87	1.44861	1.678
288.15 K, x1 = 0.0738	979.65	1.45083	1.865
288.15 K, x1 = 0.0841	982.76	1.45282	2.004
288.15 K, x1 = 0.0947	985.77	1.45492	2.24
288.15 K, x1 = 0.1056	988.72	1.45766	2.397
288.15 K, x1 = 0.1167	991.56	1.45909	2.589
288.15 K, x1 = 0.1282	994.51	1.46111	2.95
288.15 K, x1 = 0.1399	997.33	1.46315	3.196
288.15 K, x1 = 0.152	1000.15	1.46516	3.685
298.15 K, x1 = 0.0086	948.35	1.43088	0.9285
298.15 K, x1 = 0.0172	951.98	1.43313	0.9836
298.15 K, x1 = 0.026	954.91	1.43537	1.069
298.15 K, x1 = 0.0351	958.49	1.43761	1.173
298.15 K, x1 = 0.0443	961.51	1.4398	1.234
298.15 K, x1 = 0.0541	964.75	1.44206	1.343
298.15 K, x1 = 0.0638	968.06	1.44422	1.444
298.15 K, x1 = 0.0738	970.86	1.44638	1.59
298.15 K, x1 = 0.0841	974.08	1.44852	1.679
298.15 K, x1 = 0.0947	977.24	1.45063	1.8
298.15 K, x1 = 0.1056	980.16	1.45271	1.978
298.15 K, x1 = 0.1167	983.01	1.45475	2.126
298.15 K, x1 = 0.1282	986.1	1.45676	2.379
298.15 K, x1 = 0.1399	988.96	1.45871	2.582
298.15 K, x1 = 0.152	991.87	1.46064	2.907
308.15 K, x1 = 0.0086	938.9	1.42611	0.8223
308.15 K, x1 = 0.0172	942.61	1.42836	0.8668
308.15 K, x1 = 0.026	945.63	1.4306	0.9394
308.15 K, x1 = 0.0351	949.34	1.43285	1.022
308.15 K, x1 = 0.0443	952.42	1.43505	1.097
308.15 K, x1 = 0.0541	955.77	1.43731	1.166
308.15 K, x1 = 0.0638	959.15	1.43948	1.239
308.15 K, x1 = 0.0738	962.05	1.44163	1.362
308.15 K, x1 = 0.0841	965.29	1.44378	1.432
308.15 K, x1 = 0.0947	968.56	1.4459	1.524
308.15 K, x1 = 0.1056	971.53	1.44799	1.665
308.15 K, x1 = 0.1167	974.49	1.45003	1.782
308.15 K, x1 = 0.1282	977.64	1.45205	1.963
308.15 K, x1 = 0.1399	980.61	1.45401	2.135
308.15 K, x1 = 0.152	983.6	1.45595	2.351
318.15 K, x1 = 0.0086	929.42	1.42147	0.7351
318.15 K, x1 = 0.0172	933.2	1.42379	0.772
318.15 K, x1 = 0.026	936.41	1.42611	0.8352
318.15 K, x1 = 0.0351	940.14	1.42842	0.8995
318.15 K, x1 = 0.0443	943.38	1.43069	0.9641
318.15 K, x1 = 0.0541	946.75	1.43303	1.026
318.15 K, x1 = 0.0638	950.28	1.43526	1.078
318.15 K, x1 = 0.0738	953.24	1.43748	1.175
318.15 K, x1 = 0.0841	956.58	1.4397	1.241
318.15 K, x1 = 0.0947	959.89	1.44188	1.311
318.15 K, x1 = 0.1056	962.99	1.44402	1.424
318.15 K, x1 = 0.1167	966.03	1.44612	1.518
318.15 K, x1 = 0.1282	969.28	1.4482	1.651
318.15 K, x1 = 0.1399	972.26	1.45021	1.796
318.15 K, x1 = 0.152	975.4	1.45219	1.944
